According to ChEMBL document CHEMBL1201862, “PubChem BioAssay data set” (2004):
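48-hour exposure; five concentrations; linearly interpolated endpoints. GI50 = concentration required for 50% inhibition of growth.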 The source made the active and inactive calls. No stated cut-off is given here; in the data, active = GI50 up to about 1.1 µM and inactive = higher.

Experiments:
Assay in all cases: NCI anticancer screen, dose series, 48 h
Malme-3M = system: Malme-3M
HCT-15 = system: HCT-15
DU-145 = system: DU-145
K562 = system: K562
TK-10 = system: TK-10
HOP-62 = system: HOP-62
SF-295 = system: SF-295
EKVX = system: EKVX
UACC-62 = system: UACC-62
NCI-H226 = system: NCI-H226
NCI-H23 = system: NCI-H23
SF-268 = system: SF-268
SW-620 = system: SW-620
SF-539 = system: SF-539
HCC 2998 = system: HCC 2998
RXF 393 = system: RXF 393
MDA-MB-435 = system: MDA-MB-435
SNB-19 = system: SNB-19
HL-60 = system: HL-60
MDA-N = system: MDA-N

Row | Structure (SMILES) | GI50 (Malme-3M) | GI50 (HCT-15) | GI50 (DU-145) | GI50 (K562) | GI50 (TK-10) | GI50 (HOP-62) | GI50 (SF-295) | GI50 (EKVX) | GI50 (UACC-62) | GI50 (NCI-H226) | GI50 (NCI-H23) | GI50 (SF-268) | GI50 (SW-620) | GI50 (SF-539) | GI50 (HCC 2998) | GI50 (RXF 393) | GI50 (MDA-MB-435) | GI50 (SNB-19) | GI50 (HL-60) | GI50 (MDA-N)
1 | Oc1ccc2ccccc2c1OCc1nnc(CCCCCCCCc2nnc(COc3c(O)ccc4ccccc34)n2Nc2ccccc2)n1Nc1ccccc1 | 11.1 µM (inactive) | 16.5 µM | 19.7 µM (inactive) | 0.0407 µM (active) | 22.6 µM (inactive) | 1.06 µM (active) | 0.223 µM (active) | 15.4 µM (inactive) | 0.855 µM (active) | 8.32 µM (inactive) | 9.29 µM (inactive) | 6.17 µM (inactive) | 18 µM (inactive) | 6.85 µM (inactive) | 8.05 µM (inactive) | 28.5 µM (inactive) | 2.43 µM (inactive) | 20.7 µM (inactive) |  | 
2 | CC12CCC(C(=O)O1)C(C)(C)O2 (centres undefined) | > 100 µM (inactive) | > 100 µM |  | > 100 µM (inactive) | > 100 µM (inactive) | > 100 µM (inactive) | > 100 µM (inactive) | > 100 µM (inactive) | > 100 µM (inactive) | > 100 µM (inactive) | > 100 µM (inactive) | > 100 µM (inactive) | > 100 µM (inactive) | > 100 µM (inactive) | > 100 µM (inactive) | > 100 µM (inactive) | > 100 µM (inactive) | > 100 µM (inactive) | > 100 µM (inactive) | > 100 µM (inactive)
3 | C1=CC2C(C3CN(c4ccccc4)N=C13)C1C3C4C=CC21C=CC43 (centres undefined) | 57.5 µM (inactive) | > 100 µM |  | > 100 µM (inactive) | > 100 µM (inactive) | > 100 µM (inactive) | > 100 µM (inactive) | > 100 µM (inactive) | > 100 µM (inactive) | > 100 µM (inactive) | > 100 µM (inactive) | > 100 µM (inactive) | > 100 µM (inactive) | > 100 µM (inactive) | > 100 µM (inactive) | 0.172 µM (active) | > 100 µM (inactive) | > 100 µM (inactive) | > 100 µM (inactive) | 
4 | CC(C)=CC(C)C(C(O)CCC1(c2ccoc2)OCCO1)S(=O)(=O)c1ccccc1 (centres undefined) | > 100 µM (inactive) | > 100 µM |  |  | > 100 µM (inactive) | > 100 µM (inactive) | > 100 µM (inactive) | > 100 µM (inactive) |  | > 100 µM (inactive) | > 100 µM (inactive) | > 100 µM (inactive) | > 100 µM (inactive) | > 100 µM (inactive) | > 100 µM (inactive) | > 100 µM (inactive) | > 100 µM (inactive) | > 100 µM (inactive) |  | > 100 µM (inactive)
5 | CN1CCC(c2c(O)cc(O)c3c(=O)cc(-c4ccccc4Cl)oc23)C(O)C1 (centres undefined) | 0.203 µM (active) | 0.057 µM |  | 0.259 µM (active) | 0.219 µM (active) | 0.018 µM (active) | < 0.0253 µM (active) | < 0.0395 µM (active) | 0.0289 µM (active) | 0.0336 µM (active) | 0.0557 µM (active) | 0.0467 µM (active) | 0.0339 µM (active) | 0.0929 µM (active) | 0.165 µM (active) | < 0.0149 µM (active) |  | 0.0526 µM (active) | 0.0197 µM (active) | 
6 | CN(C)CCNC(=O)c1ccc(C(=O)NCCN(C)C)c2nc3ccccc3cc12 | 1.38 µM (inactive) | 2.96 µM |  | 0.61 µM (active) | 0.94 µM (active) | 0.979 µM (active) | 0.895 µM (active) | 1.81 µM (inactive) | 1.15 µM (inactive) | 1.16 µM (inactive) | 1.71 µM (inactive) | 0.962 µM (active) | 0.361 µM (active) | 0.378 µM (active) | 0.9 µM (active) | 0.762 µM (active) |  | 1.2 µM (inactive) | 0.826 µM (active) | 
7 | CC(C)(C)CNC(=O)NCn1cc(-c2ccccc2)nn1 | > 100 µM (inactive) | > 100 µM | > 100 µM (inactive) | > 100 µM (inactive) | > 100 µM (inactive) | > 100 µM (inactive) | > 100 µM (inactive) | > 100 µM (inactive) |  | 64.6 µM (inactive) | > 100 µM (inactive) | > 100 µM (inactive) | > 100 µM (inactive) | > 100 µM (inactive) | > 100 µM (inactive) |  |  | > 100 µM (inactive) | > 100 µM (inactive) | 
8 | COC1=CC(=O)C2C(C1=O)C(c1ccc(OC)c(OC)c1)[C@H]2C (some centres undefined) | 19.6 µM (inactive) | 18.2 µM |  | 23.4 µM (inactive) | 19 µM (inactive) | > 100 µM (inactive) | > 100 µM (inactive) | > 100 µM (inactive) | > 100 µM (inactive) | > 100 µM (inactive) | 19.9 µM (inactive) | > 100 µM (inactive) | 20 µM (inactive) | > 100 µM (inactive) | > 100 µM (inactive) | 19.7 µM (inactive) |  | > 100 µM (inactive) | 20.5 µM (inactive) | 
9 | CCOc1ccc(/C=C/c2cc(OC)c(OC)c(OC)c2)cc1 | 0.893 µM (active) | 0.869 µM |  | 0.458 µM (active) | 8.83 µM (inactive) | 0.392 µM (active) | 0.346 µM (active) | > 100 µM (inactive) | 0.385 µM (active) | 2.45 µM (inactive) | 2.92 µM (inactive) | 2.18 µM (inactive) | 0.791 µM (active) | 0.456 µM (active) | 1.14 µM (inactive) | 0.347 µM (active) |  | 4.36 µM (inactive) | 0.509 µM (active) | 
10 | C=C[C@@H]1OC(=O)O[C@H]1CO | > 100 µM (inactive) | > 100 µM | > 100 µM (inactive) | > 100 µM (inactive) | > 100 µM (inactive) | > 100 µM (inactive) | > 100 µM (inactive) | > 100 µM (inactive) | > 100 µM (inactive) | > 100 µM (inactive) | > 100 µM (inactive) | > 100 µM (inactive) | > 100 µM (inactive) |  |  |  | > 100 µM (inactive) | > 100 µM (inactive) |  | > 100 µM (inactive)
11 | O=C(Nc1ccc2nc(O)n[n+]([O-])c2c1)C(F)(F)F |  | > 100 µM | > 100 µM (inactive) | > 100 µM (inactive) | > 100 µM (inactive) | > 100 µM (inactive) | > 100 µM (inactive) | > 100 µM (inactive) | > 100 µM (inactive) | > 100 µM (inactive) | > 100 µM (inactive) | > 100 µM (inactive) | > 100 µM (inactive) | > 100 µM (inactive) |  |  | > 100 µM (inactive) | > 100 µM (inactive) | > 100 µM (inactive) | > 100 µM (inactive)
12 | CN1CCC2(CC1)/C(=N/C1CCCCC1)NC(=O)N2c1ccccc1 | > 100 µM (inactive) | > 100 µM | > 100 µM (inactive) |  | > 100 µM (inactive) | > 100 µM (inactive) | > 100 µM (inactive) | > 100 µM (inactive) | > 100 µM (inactive) | > 100 µM (inactive) | > 100 µM (inactive) | > 100 µM (inactive) | > 100 µM (inactive) |  | > 100 µM (inactive) | > 100 µM (inactive) |  | > 100 µM (inactive) | > 100 µM (inactive) | 
